The source made the active and inactive calls.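 Rule for the calls: active = compounds giving half or more protection of infected cells from virus-caused growth loss, again on retest; inactive = the rest.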
System: CEM cells HIV-1 protection, formazan growth assay
Experiment: NCI AIDS Antiviral Assay
Conditions: for IC50: measured here: growth of uninfected CEM cells
Method in brief: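 Soluble formazan readout of cell growth; CEM cells ± HIV-1; 5 drug concs. ≥50% protection → retest; ≥50% again = moderately active; reproducible 100% = confirmed active.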

## CCCN1C(=O)c2cc(=O)[nH]c(O)c2C1C (stereo not drawn)
  EC50: > 117 µM
  IC50: 81.3 µM

## Oc1cccc2ccc(Br)nc12
  EC50: > 200 µM
  IC50: 178 µM

## CC(=O)CC(O)(C(F)(F)Cl)C(F)(F)Cl
  outcome: inactive

## O=C1OC(=O)C2C3CCCCC3=C3CCCCC3C12 (stereo not drawn)
  EC50: > 200 µM
  IC50: > 200 µM

## O=C1C(N=Nc2ccc(Cl)cc2)Sc2nc3ccccc3n21 (stereo not drawn)
  outcome: inactive

## O=C1CCC(N2C(=O)c3ccccc3C2=O)C(=O)N1 (stereo not drawn)
  outcome: inactive

## Cn1c(=O)c2[nH]c(Nc3cccc(Cl)c3)nc2n(C)c1=O
  EC50: > 200 µM
  IC50: 10.7 µM

## S=c1[nH]c(=S)c2nc(Nc3ccccc3)sc2[nH]1
  EC50: > 617 µM
  IC50: > 617 µM

## COc1c2occc2c(Cl)c2ccc(=O)oc12
  EC50: > 70.8 µM
  IC50: 43.7 µM

## CCn1c2ccccc2c2cc(NC(=O)c3c(NCCNCCO)nc(=O)[nH]c3C)ccc21
  EC50: > 200 µM
  IC50: > 200 µM

## C=C1CC2OC(=O)C(=C)C2C(O)C2C(=C)CCC12 (stereo not drawn)
  outcome: inactive

## CCC(C)C(NC(=O)c1ccccc1SC(=O)CCCC[n+]1ccccc1)C(N)=O (stereo not drawn)
  EC50: > 35.5 µM
  IC50: 4.07 µM

## O=C1NC(=O)/C(=C/c2ccc(F)cc2)N1
  EC50: > 200 µM
  IC50: 191 µM

## COc1cc(OC)cc(Oc2nc3ccccc3nc2C(=O)O)c1
  EC50: > 200 µM
  IC50: > 200 µM

## O=C(OC[C@H]1OC(OC(=O)c2ccccc2)C(=O)C2(OC(=O)c3ccccc3)C3C=CC(C3)C12)c1ccccc1 (stereo partly drawn)
  outcome: inactive

## COc1ccc(C2CCC(Cl)(OC)CC2C=O)cc1 (stereo not drawn)
  EC50: > 245 µM
  IC50: 155 µM

## Cc1nc2ccc3c(ccc4nc(C)c(N=Nc5ccc(C(=N)N)cc5)c(O)c43)c2c(O)c1N=Nc1ccc(C(=N)N)cc1
  EC50: > 200 µM
  IC50: 11 µM

## COCC(=O)OC1CCn2c1nc1c2C(=O)C(C)=C(NC(C)=O)C1=N (stereo not drawn)
  EC50: > 200 µM
  IC50: 2.88 µM

## CC(C)=CCN1Cc2c(Cl)ccc3[nH]c(=S)n(c23)C[C@@H]1C
  EC50: 0.00224 µM
  IC50: 5.89 µM

## COc1ccc(SCc2cc(OCc3ccccc3)c(OCc3ccccc3)c(OCc3ccccc3)c2)cc1
  EC50: > 200 µM
  IC50: > 200 µM

## CCN(CC)CCN1CCNc2c3cc(OC)ccc3nc3c([N+](=O)[O-])ccc1c23
  EC50: > 100 µM
  IC50: 1.58 µM

## CC(=O)OC1C(COC(=O)c2ccccc2)OC(Nc2ncc(-c3ccc(Br)cc3)s2)C(OC(=O)c2ccccc2)C1OC(=O)c1ccccc1 (stereo not drawn)
  EC50: > 200 µM
  IC50: 20.4 µM

## C#CC1(O)CCC2C3CCC4=C(CCC(=O)C4)C3CCC21C (stereo not drawn)
  EC50: 30.9 µM
  IC50: 166 µM

## Oc1ccc(C2SCc3nc4ccccc4n32)cc1 (stereo not drawn)
  EC50: > 26.9 µM
  IC50: > 26.9 µM

## Cc1nc2ccc(NC(=S)Nc3ccccc3)cc2c(=O)n1-c1ccccc1
  EC50: > 200 µM
  IC50: > 200 µM

## C/C(C=C(C#N)C#N)=C\c1ccccc1
  EC50: > 97.7 µM
  IC50: 39.8 µM

## COc1ccc(C(=O)NC(=S)Nc2ccccc2)cc1
  EC50: > 34.7 µM
  IC50: > 34.7 µM

## O=Cc1cc(O)ccc1Br
  EC50: > 200 µM
  IC50: 2.95 µM

## c1ccc2c(C(c3c[nH]c4ccccc34)c3c[nH]c4ccccc34)c[nH]c2c1
  EC50: 0.0631 µM
  IC50: 19.1 µM

## O=C1c2ccccc2-c2cc(N3C(=O)C=CC3=O)ccc21
  EC50: > 200 µM
  IC50: 17 µM

## CCc1ccc(/C(=N\NC(N)=S)C2CC2)cc1
  EC50: > 200 µM
  IC50: 110 µM

## CCNC(=S)N/N=C/c1ccccn1
  EC50: > 200 µM
  IC50: 0.851 µM

## COP(C)(=O)/C(Cc1ccccc1)=N\O (stereo not drawn)
  EC50: > 200 µM
  IC50: > 200 µM

## CN1C(c2ccccc2)CS(=O)(=O)CS1(=O)=O (stereo not drawn)
  outcome: inactive

## O=C(OC1CC(OC(=O)c2cc(O)c(O)c(O)c2)(C(=O)O)C[C@H](OC(=O)c2cc(O)c(O)c(O)c2)C1OC(=O)c1cc(O)c(O)c(O)c1)c1cc(O)c(O)c(O)c1 (stereo partly drawn)
  outcome: inactive

## O=C1NC(=O)C(=Nc2cccc3c(=O)[nH][nH]c(=O)c23)C(c2nc3ccccc3s2)C1=O (stereo not drawn)
  outcome: inactive

## COc1ccc(-c2[nH]c3ccccc3c2CCNS(=O)(=O)c2ccc(C)cc2)cc1
  outcome: inactive

## O=[N+]([O-])c1cccc2nc3ccccc3c(NCCCN3CCOCC3)c12
  EC50: > 0.2 µM
  IC50: 0.0631 µM

## CCCCCOP(=O)(OCCCCC)C(NC(C)=O)(C(=O)OCC)C(F)(F)F (stereo not drawn)
  EC50: > 200 µM
  IC50: 110 µM

## CCC(NC(C)c1ccccc1)C(O)c1ccc(OCc2ccccc2)c(OCc2ccccc2)c1 (stereo not drawn)
  EC50: > 200 µM
  IC50: 10.7 µM

## CC(C)OP(=O)(OC(C)C)c1nn(-c2ccc([N+](=O)[O-])cc2)c(=N)s1
  EC50: > 129 µM
  IC50: 93.3 µM

## CN(C(=O)Cc1ccccc1)n1cnn(CC(=O)OC(C)(C)C)c1=S
  EC50: > 200 µM
  IC50: > 200 µM

## Cc1cc2nc3c4ccccc4scc-3c2cc1C
  EC50: > 200 µM
  IC50: 0.324 µM

## O=C1c2cc([N+](=O)[O-])ccc2-c2ccc3c4ccc5c6c(ccc(c7ccc1c2c73)c64)C(=O)c1cc([N+](=O)[O-])ccc1-5
  EC50: > 100 µM
  IC50: > 100 µM

## CN(C)CCC1(C)OCCC2=C1Cc1ccccc12 (stereo not drawn)
  EC50: > 200 µM
  IC50: 135 µM

## CCc1noc2ccccc12
  EC50: > 339 µM
  IC50: > 339 µM
